Like-named read-outs stand apart in the source and are kept apart here. Marks after values point to notes of the source that are not given here.
How the values were obtained:
male Sprague-Dawley rats = conditions: rat
Source text: Compound dosing was based on the acute dose LD50s recorded in published reference or literature sources. […] The MTD (maximum tolerated dose) was then selected as the dose at which the animals […] 5-10% body weight during the 5-day range finding study. […] In addition, the clinical observations must show no or mild clinical signs during the whole of the range-finding study. At the next highest dose, signs and symptoms of adverse effects and exceeding those of the MTD should be seen to occur. Should these criteria not be met, the range-finding study is repeated using a modified dose range.
(§1) After determination of the MTD and FED for a compound, each compound was dissolved in a vehicle for administration on day 1 of the study (additional daily doses were stored as frozen aliquots from this initial formulation). Each compound was administered to three individual male Sprague-Dawley rats for each of the two doses (MTD and FED) for one of four different times (0.25 day, 1 day, 3 days, and 5 days), yielding a total of up to 24 animals per compound study. Vehicle choice was based on solubility of the compound, effect of food on adsorption, and the vehicles used in the literature reports examined during the FED selection investigations, described above. Generally, the route and vehicle in which the FED was defined are used. When there was a choice of routes and vehicles, oral routes were chosen over injection routes. Many compounds, especially oncolytics, are only administerable intravenously. In such cases, the compound was administered as an intravenous formulation into the tail vein. Orally administered compounds were given dissolved in either water, 1% carboxymethycellulose (CMC) or corn oil. Intravenously and intraperitoneally administered compounds were given in 0.9% saline. Subcutaneously administered compounds were given in corn oil. Animal body weights were determined at 1 day and, where appropriate, at 4 days, before necropsy, and clinical observations were made on a daily basis. Control animals were dosed with vehicle only. Three male animals were used for each dose and time combination used for the compound treatment.
(§2) Tissue Harvest and Handling: After the allocated treatment time, the tissues from the animals were harvested. […] All the tissues collected were divided to provide samples for histopathological analyses, and the remainder of each tissue was then snap-frozen. […] The parameters were measured using a Hitachi-911 clinical chemistry analysis instrument according to the manufacturer's instructions. The following blood constituents were measured: Blood Urea Nitrogen (BUN), Creatinine (CRE), Glucose (GLU), Alanine Transaminase (ALT), Aspartate Aminotrans-ferase (AST), Alkaline Phosphatase (ALP), Total Bilirubin (TBI), Sodium (SOD), Potassium (POT), Chloride (CHL), Phosphorus (PHO), Total Protein (TPR), Albumin (ALB), Cholesterol (CHO), Creatine Phosphokinase (CPK), Lactate Dehydrogenase (LDH), Carbon Dioxide (CO2), Uric Acid (UA), and Lipase. […] The parameters were measured using a Baker 9000 blood cell analysis instrument according to the manufactures instructions. The following blood constituents were measured: Leukocyte count (WBC), Differential Leukocyte counts, Erythrocyte count (RBC), Hemoglobin concentration (HGB), Hematocrit (HCT), Mean Corpuscular Volume (MCV), Mean Corpuscular Hemoglobin (MCH), Mean Corpuscular Hemoglobin Concentration (MCC), Thrombocyte Count (PLC). Histopathology: Histopathological analyses of hematoxylin and eosin-stained tissue sections were performed and peer-reviewed by board-certified (Diplomate, American College of Veterinary Pathologists) veterinary pathologists.

livers of rats = conditions: for bile duct hyperplasia: in most animals
Method: as §1
as §2, with “pathologists. Preparation of Enriched mRNA: Punch Biopsies were Taken from the Frozen Tissues and were completely homogenized before being processed using the MagNA Pure robot. (Roche Diagnostics Corp., Indianapolis, Ind.) in combination with the MagNA Pure LC RNA Isolation kit II (Roche Diagnostics Corp). The amount of lysis buffer was adjusted to allow 1 ml per 50 mg for liver tissue, or 1 ml per 80 mg for all other tissues. After complete homogenization and before loading of the samples into the 32-well MagNA Pure plate, the samples were syringed 5-6 times using a 20-gauge 3-ml syringe to ensure a smooth solution for robotic processing. Tissue sample processing was performed in duplicate wells (loading 150 μl of homogenized sample and 150 μl of additional lysis buffer to each well) of the MagNA Pure LC, which is programmed to extract mRNA using oligo-dT selection technology into a final elution volume of 100 μl.” for “pathologists.”

Cholestasis Signature = system: Cholestasis Signature
Method: as §1
as §2, with “pathologists. Preparation of Enriched mRNA: Punch Biopsies were Taken from the Frozen Tissues and were completely homogenized before being processed using the MagNA Pure robot. (Roche Diagnostics Corp., Indianapolis, Ind.) in combination with the MagNA Pure LC RNA Isolation kit II (Roche Diagnostics Corp). The amount of lysis buffer was adjusted to allow 1 ml per 50 mg for liver tissue, or 1 ml per 80 mg for all other tissues. After complete homogenization and before loading of the samples into the 32-well MagNA Pure plate, the samples were syringed 5-6 times using a 20-gauge 3-ml syringe to ensure a smooth solution for robotic processing. Tissue sample processing was performed in duplicate wells (loading 150 μl of homogenized sample and 150 μl of additional lysis buffer to each well) of the MagNA Pure LC, which is programmed to extract mRNA using oligo-dT selection technology into a final elution volume of 100 μl.” for “pathologists.”

[1] = 81 mg/kg orally in corn oil, 5 days, vs vehicle control, average of 3 animals
[2] = rat liver histopathology, training-set treatments
[3] = rat liver expression data vs Cholestasis Signature, maximum score of training treatments normalised to 100, dose and time not given
[4] = 16 mg/kg orally in corn oil, 3 days, vs vehicle control, average of 3 animals
[5] = 386 mg/kg orally in corn oil, 3 days, vs vehicle control, average of 3 animals

CC/C(=C(/CC)c1ccc(O)cc1)c1ccc(O)cc1 [DIETHYLSTILBESTROL, 3,4-bis-(4-hydroxyphenyl)-3-hexene]
raised serum levels of ALP and TBI compared with vehicle-treated control animals (male Sprague-Dawley rats; in vivo, po): at least 2 fold
Fold change in serum alkaline phosphatase (male Sprague-Dawley rats; in vivo, po, 300 mg/kg): 2.0 fold
Fold change in serum alkaline phosphatase and total bilirubin (male Sprague-Dawley rats; in vivo, po, 300 mg/kg): 11.5 fold
Fold change in serum total bilirubin (male Sprague-Dawley rats; in vivo, po, 300 mg/kg): 5.8 fold
increased hepatocyte enlargement and increased eosinophilic granular cytoplasm (livers of rats; rat, in vivo): mild to severe
nuclear/cytoplasmic condensation (apoptosis) and/or necrosis in liver (livers of rats; rat, in vivo): mild to moderate
Sequence Projection Score (SPS) (Cholestasis Signature; rat, in vivo): 34*

Nc1ccc(Cc2ccc(N)cc2)cc1 [4,4′-DIAMINODIPHENYLMETHANE, 4,4′-diaminodiphenylmethane]
Fold change in serum alkaline phosphatase (male Sprague-Dawley rats; [1]): 1.6 fold
Fold change in serum alkaline phosphatase and total bilirubin (male Sprague-Dawley rats; [1]): 7.7 fold
Fold change in serum total bilirubin (male Sprague-Dawley rats; [1]): 4.9 fold
bile duct hyperplasia (livers of rats; [2]): moderate
Sequence Projection Score (SPS) (Cholestasis Signature; [3]): 77**

O=NN(CCCl)C(=O)NCCCl [CARMUSTINE, 1,3-bis(2-chloroethyl)-1-nitrosourea]
Fold change in serum alkaline phosphatase (male Sprague-Dawley rats; [4]): 1.7 fold
Fold change in serum alkaline phosphatase and total bilirubin (male Sprague-Dawley rats; [4]): 8.1 fold
Fold change in serum total bilirubin (male Sprague-Dawley rats; [4]): 4.6 fold
increased hepatocyte enlargement and increased eosinophilic granular cytoplasm (livers of rats; [2]): mild to severe
nuclear/cytoplasmic condensation (apoptosis) and/or necrosis in liver (livers of rats; [2]): mild to moderate
bile duct hyperplasia (livers of rats; [2]): moderate
Sequence Projection Score (SPS) (Cholestasis Signature; [3]): 69*

c1ccc2c(c1)Nc1ccccc1S2 [PHENOTHIAZINE, 2,3:5,6-dibenzo-1,4-thiazine]
Fold change in serum alkaline phosphatase (male Sprague-Dawley rats; [5]): −1.1 fold
Fold change in serum alkaline phosphatase and total bilirubin (male Sprague-Dawley rats; [5]): 3.4 fold
Fold change in serum total bilirubin (male Sprague-Dawley rats; [5]): 3.7 fold
steatosis (livers of rats; [2]): moderate to very severe
Sequence Projection Score (SPS) (Cholestasis Signature; [3]): 49*

Reference: patent US7396645B1, “Cholestasis signature” (priority 2002, dated 2008)
